Assay results as given in patent US9644201B2, “Structured peptide processing” (BICYCLE THERAPEUTICS LIMITED, priority 2009, dated 2017).
Blank lines part the entries; values can stand above or below the compound they belong to. Starred links: 1 amine or outer side, 2 acyl side, 3 side chain; linkers in the order of their positions; H or OH if unused. Positions of bridges follow the written chain, without caps; N, C: chain ends. Residues, ends and D or L forms follow the SMILES beside them. No end group written: not given here. *: point of attachment. TBMB = c1c(C[*:1])cc(C[*:3])cc1C[*:2]; Cam = NC(=O)C*

What was measured:
MDM2 (res 2-125) = MDM2 (res 2-125) (Homo sapiens, UniProt Q00987); experiment: Fluorescence anisotropy titration, affinity for MDM2; assay type: binding
Protocol: Titration experiments were run on a Horiba Jobin Yvon fluorimeter equipped with the Hamilton Microlab titrator controlled by laboratory software. […] The slit widths for excitation and emission were 5 nm and 15 nm and the integration time 10 s was used for each measurement. The intrinsic fluorescence of tryptophan in peptides 10, 48 was used to measure their binding affinity for MDM2 (res 2-125). The experiments were performed at 23° C. in PBS, 5 mM DTT. Usually 250 μl of MDM2 (150 μM) was titrated into 1.2 ml of peptide (1 μM). Titration data were analyzed with a standard 1:1 binding model by using the quadratic solution to the equilibrium Kd=[A][B]/[AB]. […] The fitting equation contained an extra term to account for linear drift.

[1] = target: T1, biotinylated MDM2 peptide (res 2-125) (Homo sapiens, UniProt Q00987); experiment: Phage ELISA, binding to MDM2; conditions: 5 mM DTT 20 min, then chymotrypsin 50 μg/ml 2 min
T1 construct: biotinylated MDM2 peptide (res 2-125)
Protocol: 0.6 μg/mL of biotinylated MDM2 peptide (res 2-125) was immobilized on a streptavidin-coated plate (Roche). Plate was blocked with PBSM (but 4% in milk powder) and linear or TBMB-conjugated phage (10^7 TU/well in PBSM in the presence or absence of 5 mM DTT) was incubated on the plate for 50 min at room temperature. Similarly, phage was first reduced in 5 mM DTT for 20 min, treated with chymotrypsin (50 μg/ml in PBS) for 2 min, mixed with PBSM (final concentration) and incubated on the plate for 50 min at room temperature. Phage was detected using an anti-M13-HRP monoclonal antibody (1:5000, Amersham).

various proteases = assay type: in vitro ADME
Protocol: (§1) For methods, see Example 3 following. The proteolysis was undertaken at 37° C. Cathepsin G and kalikrein reactions were carried out in 10 mM Tris pH 7.4, 150 mM NaCl, 10 mM MgCl2, 1 mM CaCl2, 0.1% BSA, 0.01% Triton X100, 5% DMSO. Chymotrypsin reactions were carried out in 100 mM Tris pH 7.4, 10 mM CaCl2. Pronase and proteinase K reactions were carried out in 100 mM Tris pH 7.4, 0.5% SDS. Subtilisin reactions were carried out in 50 mM KH2PO4 pH 7.5. Trypsin reactions were carried out in 67 mM sodium phosphate pH 7.6. Reaction conditions with serum involve dissolving the peptide in 1×PBS (total volume 24 μl) and 6 μl of human serum added to the reaction.
(§2) Peptides (linear and conjugates) were dissolved in water at a concentration of 1 mg/ml, giving an effective concentration of ˜0.5 mM stock solutions and the concentration determined using amino acid analysis. […] Samples were analysed by MALDI-TOF mass spectrometry to identify the fragment peaks and thus determine the site of cleavage. Where there was ambiguity as to the cleavage site samples were analysed by either by MALDI-TOF-TOF (Bruker Ultraflex 3) or by Linear Ion Trap (Thermoscientific Orbitrap XL) to determine accurate masses.

Cathepsin G = target: T2, Cathepsin G (Homo sapiens, UniProt P08311); experiment: Peptide conjugate digestion with Cathepsin G; assay type: in vitro ADME; further: key: +++: substantially intact; −: completely cleaved
T2 sequence (P08311 21-244): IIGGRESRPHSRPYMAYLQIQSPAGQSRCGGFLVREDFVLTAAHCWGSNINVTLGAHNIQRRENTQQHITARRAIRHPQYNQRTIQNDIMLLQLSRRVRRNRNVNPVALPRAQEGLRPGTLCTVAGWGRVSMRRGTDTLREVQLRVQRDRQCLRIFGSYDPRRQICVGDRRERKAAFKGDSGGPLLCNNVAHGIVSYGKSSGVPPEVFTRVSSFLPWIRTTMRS
Protocol: as §1
(§3) Peptides (linear and conjugates) were dissolved in water at a concentration of 1 mg/ml, giving an effective concentration of ˜0.5 mM stock solutions and the concentration determined using amino acid analysis. 2 μl of peptide conjugates ([…]) (˜30 μM in reactions depending on actual molecular weight) were dissolved in reaction buffer (see below) in a total reaction volume of 30 μl, followed by the protease (typically in the range 1, 0.1 and 0.01 μg per reaction), and samples were incubated at 37° C. for 1 hr. 10 μl aliquots were quenched into 10 μl of 1% TFA. Samples were analysed by MALDI-TOF mass spectrometry to identify the fragment peaks and thus determine the site of cleavage. Where there was ambiguity as to the cleavage site samples were analysed by either by MALDI-TOF-TOF (Bruker Ultraflex 3) or by Linear Ion Trap (Thermoscientific Orbitrap XL) to determine accurate masses.

[2] = Resistance to proteases in serum; assay type: in vitro ADME, human; conditions: 37° C.
Protocol: as §1

Chymotrypsin = experiment: Peptide conjugate digestion with Chymotrypsin; assay type: in vitro ADME; on Peptide digestion, intactness scale: key: +++: substantially intact; −: completely cleaved
Protocol: as §1, §3

Pronase = experiment: Peptide conjugate digestion with Pronase; assay type: in vitro ADME; further: key: +++: substantially intact; −: completely cleaved
Protocol: as §1, §3

Trypsin = experiment: Peptide conjugate digestion with Trypsin; assay type: in vitro ADME; on Peptide digestion, intactness scale: key: +++: substantially intact; −: completely cleaved
Protocol: as §1, §3

Subtilisin = experiment: Peptide conjugate digestion with Subtilisin; assay type: in vitro ADME; further: key: +++: substantially intact; −: completely cleaved
Protocol: as §1, §2

Proteinase K = Proteinase K (Parengyodontium album, UniProt P06873); experiment: Peptide conjugate digestion with Proteinase K; assay type: in vitro ADME; parameters: key: +++: substantially intact; −: completely cleaved
Protocol: as §1, §3

Kalikrein = Kalikrein (Homo sapiens, UniProt P03952); experiment: Peptide conjugate digestion with Kalikrein; assay type: in vitro ADME; parameters: Peptide digestion, intactness scale: key: +++: substantially intact; −: completely cleaved
Protocol: as §1, §3

[3] = Peptide conjugate digestion with Chymotrypsin; assay type: in vitro ADME; conditions: isolated enzyme chymotrypsin, pH 7.4; chymotrypsin 0.1 μg, after 1 hr; read-out: fraction cleaved by chymotrypsin; on Peptide digestion, intactness scale: key: +++: substantially intact; −: completely cleaved
Protocol: as §1, §3

[4] = Kd, peptide+MDM2, λex=295 nm, 23° C., PBS, 5 mM DTT
[5] = affinity for MDM2, synthetic peptide, sub-micromolar, stated range
[6] = mass spectrometric analysis of cleaved species

Sequence of Proteinase K (P06873 106-384): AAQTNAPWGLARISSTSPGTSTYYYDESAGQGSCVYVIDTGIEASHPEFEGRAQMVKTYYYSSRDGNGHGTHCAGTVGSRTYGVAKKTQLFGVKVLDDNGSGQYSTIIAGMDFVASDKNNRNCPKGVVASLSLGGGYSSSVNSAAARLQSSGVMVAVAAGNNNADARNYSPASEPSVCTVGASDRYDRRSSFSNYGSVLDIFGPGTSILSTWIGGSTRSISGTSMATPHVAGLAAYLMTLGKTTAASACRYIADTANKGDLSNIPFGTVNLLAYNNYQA
Sequence of MDM2 (res 2-125) (Q00987 2-125, species assumed): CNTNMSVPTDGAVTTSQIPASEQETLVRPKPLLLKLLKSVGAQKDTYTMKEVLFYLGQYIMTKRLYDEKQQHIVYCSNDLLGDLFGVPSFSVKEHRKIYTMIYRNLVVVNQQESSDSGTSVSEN
Sequence of Kalikrein (P03952 20-638): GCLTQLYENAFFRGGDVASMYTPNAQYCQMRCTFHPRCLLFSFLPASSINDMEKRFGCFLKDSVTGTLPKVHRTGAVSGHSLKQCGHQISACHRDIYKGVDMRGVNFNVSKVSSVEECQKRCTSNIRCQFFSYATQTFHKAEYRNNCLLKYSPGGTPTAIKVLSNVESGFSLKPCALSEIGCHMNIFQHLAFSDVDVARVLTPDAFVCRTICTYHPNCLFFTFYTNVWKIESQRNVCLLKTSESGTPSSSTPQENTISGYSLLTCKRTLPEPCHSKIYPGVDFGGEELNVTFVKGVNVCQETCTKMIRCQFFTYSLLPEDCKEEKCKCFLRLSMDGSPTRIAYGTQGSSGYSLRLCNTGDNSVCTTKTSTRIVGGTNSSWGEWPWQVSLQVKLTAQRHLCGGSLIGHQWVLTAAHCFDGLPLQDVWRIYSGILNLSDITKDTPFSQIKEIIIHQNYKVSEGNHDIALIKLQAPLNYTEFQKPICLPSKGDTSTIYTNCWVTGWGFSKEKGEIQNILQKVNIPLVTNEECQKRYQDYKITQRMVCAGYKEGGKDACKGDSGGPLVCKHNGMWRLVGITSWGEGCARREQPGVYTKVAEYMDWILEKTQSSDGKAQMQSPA
T1 sequence (Q00987 2-125, species assumed): as the sequence (Q00987 2-125, species assumed) above

Compound: CC(C)C[C@@H]1NC(=O)[C@H](CCC(=O)O)NC(=O)[C@@H](NC(=O)[C@@H](N)CO)CSCc2cc3cc(c2)CSC[C@H](NC(=O)[C@H](CCCCN)NC(=O)[C@@H]2CCCN2C(=O)[C@H](CC(N)=O)NC(=O)[C@H](Cc2c[nH]c4ccccc24)NC1=O)C(=O)N[C@@H](CCCNC(=N)N)C(=O)N[C@@H](CC(C)C)C(=O)N[C@@H](CO)C(=O)N1CCC[C@H]1C(=O)N[C@@H](Cc1ccccc1)C(=O)N[C@@H](CCC(=O)O)C(=O)N[C@H](C(=O)N[C@@H](CCCCN)C(=O)NCC(=O)O)CSC3 [PEP10] (HELM PEPTIDE1{S.C.E.L.W.N.P.K.C.R.L.S.P.F.E.C.K.G}|CHEM1{[c1c(C[*:1])cc(C[*:3])cc1C[*:2]]}$PEPTIDE1,CHEM1,2:R3-1:R1|PEPTIDE1,CHEM1,9:R3-1:R2|PEPTIDE1,CHEM1,16:R3-1:R3$$$V2.0)
Kd (MDM2 (res 2-125); [4]): 267 nM
Kd (MDM2 (res 2-125); [5]): 250 to 750 nM
binding to MDM2 after proteolysis [1]: resistant to proteolysis

Compound: CG4L1-PK15L1 TBMB: bicyclic CG4L1-PK15L1 (WO 2009/098450) (ALCIFDLGFCSDRFRNCPADE; linker 3-10-17 via TBMB)
factor of resistance, TBMB conjugate versus linear (various proteases): 1-100 fold

Compound: CC(C)[C@@H]1NC(=O)[C@@H](NC(=O)[C@@H](N)CO)CSCc2cc3cc(c2)CSC[C@H](NC(=O)[C@H]([C@@H](C)O)NC(=O)[C@H](Cc2c[nH]c4ccccc24)NC(=O)CNC(=O)[C@H](Cc2ccccc2)NC(=O)[C@H](CCCNC(=N)N)NC1=O)C(=O)N[C@@H](CC(=O)O)C(=O)N[C@@H](CC(N)=O)C(=O)N[C@@H](CO)C(=O)N[C@@H](Cc1c[nH]c2ccccc12)C(=O)N[C@@H](Cc1c[nH]cn1)C(=O)NCC(=O)N[C@H](C(=O)N[C@@H](CCCCN)C(=O)NCC(=O)O)CSC3 [PEP48] (HELM PEPTIDE1{S.C.V.R.F.G.W.T.C.D.N.S.W.H.G.C.K.G}|CHEM1{[c1c(C[*:1])cc(C[*:3])cc1C[*:2]]}$PEPTIDE1,CHEM1,2:R3-1:R1|PEPTIDE1,CHEM1,9:R3-1:R2|PEPTIDE1,CHEM1,16:R3-1:R3$$$V2.0)
Kd (MDM2 (res 2-125); Kd, peptide+MDM2, λex=280 nm): 760 nM
Kd (MDM2 (res 2-125); [4]): 567 nM
Kd (MDM2 (res 2-125); [5]): 250 to 750 nM
binding to MDM2 after proteolysis [1]: resistant to proteolysis

Peptide digestion, intactness scale (Cathepsin G; Cathepsin G 0.1, 37° C.): −
Peptide digestion, intactness scale (Cathepsin G; Cathepsin G 1 (μg per reaction), 37° C.): −
time within which digested by the proteases in serum [2]: ≤ 2 h
Peptide digestion, intactness scale (Chymotrypsin; Chymotrypsin 0.01, 37° C.): +++
Peptide digestion, intactness scale (Chymotrypsin; Chymotrypsin 1, 37° C.): −
Peptide digestion, intactness scale (Chymotrypsin; Chymotrypsin 10, 37° C.): −
Peptide digestion, intactness scale (Pronase; Pronase 0.01, 37° C.): +++
Peptide digestion, intactness scale (Pronase; Pronase 10, 37° C.): −
Peptide digestion, intactness scale (Trypsin; Trypsin 1, 37° C.): −
Peptide digestion, intactness scale (Trypsin; Trypsin 10, 37° C.): −
Compound: CC(C)C[C@H](NC(=O)[C@H](C)NC(=O)[C@H](CCC(=O)O)NC(=O)[C@H](CC(=O)O)NC(=O)[C@H](C)NC(=O)[C@@H]1CCCN1C(=O)[C@H](CSCC(N)=O)NC(=O)[C@H](CC(N)=O)NC(=O)[C@H](CCCNC(=N)N)NC(=O)[C@H](Cc1ccccc1)NC(=O)[C@H](CCCNC(=N)N)NC(=O)[C@H](CC(=O)O)NC(=O)[C@H](CO)NC(=O)[C@H](CSCC(N)=O)NC(=O)[C@H](C)N)C(=O)N[C@@H](CSCC(N)=O)C(=O)NCC(=O)O [PK15 linear, AC*SDRFRNC*PADEALC*G] (H-AC(Cam)SDRFRNC(Cam)PADEALC(Cam)G-OH)

Compound: CC(C)C[C@@H]1NC(=O)[C@H](C)NC(=O)[C@H](CCC(=O)O)NC(=O)[C@H](CC(=O)O)NC(=O)[C@H](C)NC(=O)[C@@H]2CCCN2C(=O)[C@@H]2CSCc3cc(cc(c3)CSC[C@@H](C(=O)NCC(=O)O)NC1=O)CSC[C@H](NC(=O)[C@H](C)N)C(=O)N[C@@H](CO)C(=O)N[C@@H](CC(=O)O)C(=O)N[C@@H](CCCNC(=N)N)C(=O)N[C@@H](Cc1ccccc1)C(=O)N[C@@H](CCCNC(=N)N)C(=O)N[C@@H](CC(N)=O)C(=O)N2 [PK15-TBMB] (HELM PEPTIDE1{A.C.S.D.R.F.R.N.C.P.A.D.E.A.L.C.G}|CHEM1{[c1c(C[*:1])cc(C[*:3])cc1C[*:2]]}$PEPTIDE1,CHEM1,2:R3-1:R1|PEPTIDE1,CHEM1,9:R3-1:R2|PEPTIDE1,CHEM1,16:R3-1:R3$$$V2.0)
Peptide digestion, intactness scale (Cathepsin G; Cathepsin G 0.01, 37° C.): +++
Peptide digestion, intactness scale (Cathepsin G; Cathepsin G 0.1, 37° C.): +++
Peptide digestion, intactness scale (Subtilisin; Subtilisin 0.009, 37° C.): +++
Peptide digestion, intactness scale (Subtilisin; Subtilisin 9, 37° C.): −
Peptide digestion, intactness scale (Proteinase K; Proteinase K 0.01, 37° C.): +++
Peptide digestion, intactness scale (Proteinase K; Proteinase K 0.1, 37° C.): +++
Peptide digestion, intactness scale (Proteinase K; Proteinase K 1, 37° C.): +++
time for which proteolysis in serum is resisted ([2]; later times not yet tested): at least 48 hours
Peptide digestion, intactness scale (Kalikrein; Kalikrein 0.01, 37° C.): +++
Peptide digestion, intactness scale (Kalikrein; Kalikrein 0.1, 37° C.): +++
Peptide digestion, intactness scale (Kalikrein; Kalikrein 1, 37° C.): +++
factor of resistance, TBMB conjugate versus linear (Kalikrein; attack by kallikrein, by comparing different concentrations of enzyme): about 100 fold
cleavage by chymotrypsin (Chymotrypsin; 1 μg chymotrypsin, after 1 hour): completely cleaved
Peptide digestion, intactness scale (Chymotrypsin; Chymotrypsin 0.01, 37° C.): +++
Peptide digestion, intactness scale (Chymotrypsin; Chymotrypsin 0.1, 37° C.): +++
Peptide digestion, intactness scale (Chymotrypsin; Chymotrypsin 1, 37° C.): +++
chymotrypsin cleavage site (Chymotrypsin; [6]): same cleavage sites
metabolised at 1 h, 20 μM [3]: ~50%
Peptide digestion, intactness scale (Pronase; Pronase 0.01, 37° C.): +++
Peptide digestion, intactness scale (Pronase; Pronase 0.1, 37° C.): +++
Peptide digestion, intactness scale (Trypsin; Trypsin 0.01, 37° C.): +++
Peptide digestion, intactness scale (Trypsin; Trypsin 10, 37° C.): −
trypsin cleavage sites (Trypsin; [6]): same cleavage sites
time to complete cleavage at R7 (Trypsin; trypsin 0.1 μg): ≤ 5 min
